Common to all, as to type: in vitro ADME
Data set [1] is described as follows: Assay 3. Fecal Incubation Stability. To be noted: 1 or 10 μM, human fecal slurry, anaerobic.
Data set [2] is described as follows: Assay 2. Stability in Simulated Intestinal Fluid (SIF). To be noted: 1 μM, 37° C., SIF pH 6.7 with pancreatin. The procedure, abridged: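 Acylated compounds at 1 μM (from 1 mM DMSO stock) in fresh SIF: FaSSIF with pancreatin in pH 6.7 phosphate buffer, agitated at 37 °C. Aliquots from T0 onward quenched with 1 volume acetonitrile; LC/MS gives degradation rates.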

A short description of data set [3]: Assay 1. Stability in Simulated Gastric Fluid (SGF). To be noted: 1 μM, 37° C., SGF pH 1.6 with pepsin. An outline of the steps: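 Acylated compounds at a final 1 μM (diluted from 1 mM DMSO stock) were incubated at 37 °C in SGF of pH 1.6 NaCl buffer with FaSSIF powder and 0.1 mg/mL pepsin. Aliquots were quenched with acetonitrile at T0 and regular intervals, and degradation rates were determined by LC/MS.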

With `CCC(=O)O[C@H]1[C@H](OC(=O)CC)[C@@H](OC(=O)CCc2c[nH]c3ccccc23)O[C@@H](C)[C@H]1OC(=O)CC` [Compound 110, (2R,3S,4R,5R,6S)-6-methyl-3,4,5-tris(propanoyloxy)oxan-2-yl 3-(1H-indol-3-yl)propanoate], in data set [1], the “Assay 3 (% Remaining at 24 h)” value is recorded as “A (A: <25% of the tested compound remaining)”. Moreover, the “Assay 2 (SIF) (% @ Remaining 4 hours)” value in data set [2] is “C (C: >75% of the tested compound remaining)”. In addition, the “Assay 1 (SGF) (% Remaining @ 1 hours)” value in data set [3] was “C (C: >75% of the tested compound remaining)”.
`CCC(=O)O[C@@H]1O[C@@H](C)[C@H](OC(=O)CC)[C@@H](OC(=O)CC)[C@H]1OC(=O)CC` [Compound 111, (2S,3R,4R,5S,6S)-6-methyl-3,4,5-tris(propanoyloxy)oxan-2-yl propanoate]: the “Assay 3 (% Remaining at 24 h)” value in data set [1] was “A (A: <25% of the tested compound remaining)”. Further, the “Assay 2 (SIF) (% @ Remaining 4 hours)” value in data set [2] is given as “A (A: <25% of the tested compound remaining)”. In data set [3], the “Assay 1 (SGF) (% Remaining @ 1 hours)” value was “B (B: 25-75% of the tested compound remaining)”.
As to `O=C(CCc1c[nH]c2ccccc12)O[C@@H]1OC[C@@H](OC(=O)CCc2c[nH]c3ccccc23)[C@@H](OC(=O)CCc2c[nH]c3ccccc23)[C@H]1OC(=O)CCc1c[nH]c2ccccc12` [Compound 113, (2S,3R,4R,5R)-3,4,5-tris({[3-(1H-indol-3-yl)propanoyl]oxy})oxan-2-yl 3-(1H-indol-3-yl)propanoate], in data set [1], the “Assay 3 (% Remaining at 24 h)” value is “A (A: <25% of the tested compound remaining)”. Also, the “Assay 2 (SIF) (% @ Remaining 4 hours)” value in data set [2] is reported as “A (A: <25% of the tested compound remaining)”. Besides, the “Assay 1 (SGF) (% Remaining @ 1 hours)” value in data set [3] is “C (C: >75% of the tested compound remaining)”.
For the molecule `CCCC(=O)O[C@@H]1[C@@H](OC(=O)CCC)[C@H](C)O[C@@H](OC(=O)CCc2c[nH]c3ccccc23)[C@@H]1OC(=O)CCC` [Compound 116, (2S,3R,4R,5S,6S)-4,5-bis(butanoyloxy)-2-{[3-(1H-indol-3-yl)propanoyl]oxy}-6-methyloxan-3-yl Butanoate], in data set [1], the “Assay 3 (% Remaining at 24 h)” value is “A (A: <25% of the tested compound remaining)”. Besides, the “Assay 2 (SIF) (% @ Remaining 4 hours)” value in data set [2] is reported as “A (A: <25% of the tested compound remaining)”. In addition, the “Assay 1 (SGF) (% Remaining @ 1 hours)” value in data set [3] was “C (C: >75% of the tested compound remaining)”.
Turning to `CCCC(=O)O[C@H]1[C@H](OC(=O)CCC)[C@H](OC(=O)CCc2c[nH]c3ccccc23)O[C@@H](C)[C@H]1OC(=O)CCC` [Compound 117, (2S,3S,4R,5R,6S)-4,5-bis(butanoyloxy)-2-{[3-(1H-indol-3-yl)propanoyl]oxy}-6-methyloxan-3-yl Butanoate], the “Assay 3 (% Remaining at 24 h)” value in data set [1] is recorded as “A (A: <25% of the tested compound remaining)”. Besides, the “Assay 2 (SIF) (% @ Remaining 4 hours)” value in data set [2] is “A (A: <25% of the tested compound remaining)”. Moreover, the “Assay 1 (SGF) (% Remaining @ 1 hours)” value in data set [3] is on record as “C (C: >75% of the tested compound remaining)”.
As for `CCCC(=O)OC[C@H]1O[C@@H](OC(=O)CCc2c[nH]c3ccccc23)[C@H](OC(=O)CCC)[C@@H](OC(=O)CCC)[C@@H]1OC(=O)CCC` [Compound 118, [(2R,3R,4S,5R,6S)-3,4,5-tris(butanoyloxy)-6-{[3-(1H-indol-3-yl)propanoyl]oxy}oxan-2-yl]methyl Butanoate], the “Assay 3 (% Remaining at 24 h)” value in data set [1] was “A (A: <25% of the tested compound remaining)”. Besides, in data set [2], the “Assay 2 (SIF) (% @ Remaining 4 hours)” value is recorded as “A (A: <25% of the tested compound remaining)”. Further, in data set [3], the “Assay 1 (SGF) (% Remaining @ 1 hours)” value was “B (B: 25-75% of the tested compound remaining)”.
On to `CCCC(=O)OC[C@H]1O[C@H](OC(=O)CCc2c[nH]c3ccccc23)[C@H](OC(=O)CCC)[C@@H](OC(=O)CCC)[C@@H]1OC(=O)CCC` [Compound 122, [(2R,3R,4S,5R,6R)-3,4,5-tris(butanoyloxy)-6-{[3-(1H-indol-3-yl)propanoyl]oxy}oxan-2-yl]methyl Butanoate], for which the “Assay 3 (% Remaining at 24 h)” value in data set [1] was “A (A: <25% of the tested compound remaining)”. Further, the “Assay 2 (SIF) (% @ Remaining 4 hours)” value in data set [2] is “B (B: 25-75% of the tested compound remaining)”. Further, the “Assay 1 (SGF) (% Remaining @ 1 hours)” value in data set [3] is “C (C: >75% of the tested compound remaining)”.
For `CCC(=O)O[C@@H]1[C@@H](OC(=O)CC)[C@H](OC(=O)/C=C/c2c[nH]c3ccccc23)OC[C@H]1OC(=O)CC` [Compound 123, (2S,3R,4S,5R)-3,4,5-tris(propanoyloxy)oxan-2-yl (2E)-3-(1H-indol-3-yl)prop-2-enoate] the same measures were “A (A: <25% of the tested compound remaining)”, “A (A: <25% of the tested compound remaining)” and “C (C: >75% of the tested compound remaining)”.
Turning to `CCC(=O)O[C@H]1[C@H](OC(=O)/C=C/c2c[nH]c3ccccc23)OC[C@@H](OC(=O)CC)[C@H]1OC(=O)CC` [Compound 124, (2S,3R,4R,5R)-3,4,5-tris(propanoyloxy)oxan-2-yl (2E)-3-(1H-indol-3-yl)prop-2-enoate], in data set [1], the “Assay 3 (% Remaining at 24 h)” value is listed as “A (A: <25% of the tested compound remaining)”. The “Assay 2 (SIF) (% @ Remaining 4 hours)” value in data set [2] is reported as “A (A: <25% of the tested compound remaining)”. In addition, the “Assay 1 (SGF) (% Remaining @ 1 hours)” value in data set [3] was “C (C: >75% of the tested compound remaining)”.
`CCC(=O)O[C@@H]1[C@@H](OC(=O)CC)[C@@H](OC(=O)/C=C/c2c[nH]c3ccccc23)OC[C@H]1OC(=O)CC` [Compound 125, (2R,3R,4S,5R)-3,4,5-tris(propanoyloxy)oxan-2-yl (2E)-3-(1H-indol-3-yl)prop-2-enoate]: the “Assay 3 (% Remaining at 24 h)” value in data set [1] is given as “A (A: <25% of the tested compound remaining)”. Further, the “Assay 2 (SIF) (% @ Remaining 4 hours)” value in data set [2] is reported as “A (A: <25% of the tested compound remaining)”. The “Assay 1 (SGF) (% Remaining @ 1 hours)” value in data set [3] is “C (C: >75% of the tested compound remaining)”.
As to `CCC(=O)O[C@H]1[C@@H](OC(=O)CCc2c[nH]c3ccccc23)OC[C@@H](OC(=O)CC)[C@H]1OC(=O)CC` [Compound 126, (2R,3R,4R,5R)-3,4,5-tris(propanoyloxy)oxan-2-yl 3-(1H-indol-3-yl)propanoate], the “Assay 3 (% Remaining at 24 h)” value in data set [1] is given as “A (A: <25% of the tested compound remaining)”. The “Assay 2 (SIF) (% @ Remaining 4 hours)” value in data set [2] is recorded as “A (A: <25% of the tested compound remaining)”. Also, the “Assay 1 (SGF) (% Remaining @ 1 hours)” value in data set [3] was “C (C: >75% of the tested compound remaining)”.
In the case of `CCCC(=O)O[C@@H]1[C@@H](OC(=O)CCC)[C@@H](OC(=O)CCc2c[nH]c3ccccc23)OC[C@H]1OC(=O)CCC` [Compound 128, (2R,3R,4S,5R)-4,5-bis(butanoyloxy)-2-{[3-(1H-indol-3-yl)propanoyl]oxy}oxan-3-yl Butanoate], the “Assay 3 (% Remaining at 24 h)” value in data set [1] is recorded as “A (A: <25% of the tested compound remaining)”. Also, the “Assay 2 (SIF) (% @ Remaining 4 hours)” value in data set [2] is listed as “A (A: <25% of the tested compound remaining)”. In addition, in data set [3], the “Assay 1 (SGF) (% Remaining @ 1 hours)” value was “C (C: >75% of the tested compound remaining)”.
Regarding `CCC(=O)O[C@H]1[C@H](OC(=O)CCc2c[nH]c3ccccc23)OC[C@@H](OC(=O)CC)[C@H]1OC(=O)CC` [Compound 130, (2S,3R,4R,5R)-3,4,5-tris(propanoyloxy)oxan-2-yl 3-(1H-indol-3-yl)propanoate], in data set [1], the “Assay 3 (% Remaining at 24 h)” value is listed as “A (A: <25% of the tested compound remaining)”. In addition, in data set [2], the “Assay 2 (SIF) (% @ Remaining 4 hours)” value was “A (A: <25% of the tested compound remaining)”. Moreover, the “Assay 1 (SGF) (% Remaining @ 1 hours)” value in data set [3] is “B (B: 25-75% of the tested compound remaining)”.

Source of the values: US10953027B2, “Active agents and methods of their use for the treatment of metabolic disorders and nonalcoholic fatty liver disease” (Flagship Pioneering Innovations V, Inc., priority 2018, dated 2021).
